Measurements taken from patent publication US12544375B2, “Small molecule therapeutic for parkinson's disease paired with a biomarker of therapeutic activity” (The Board of Trustees of the Leland Stanford Junior …, priority 2019, dated 2026).

Tests used:
PINK1 null flies = assay: Non-progressive phenotypes of PINK1 null flies (ATP levels, thoracic indentation, wing posture, flying ability); assay type: in vivo, fly; conditions: PINK1 null flies fed from adult onset with 2.5 μM
Method: (§1) FIG. 8. Related to FIG. 2-4. Miro1 Reducer in Human Cell and Fly Models. (A) Fibroblasts from Healthy-1 and PD-2 were treated, lysed, and blotted as indicated. Band intensities are normalized to those of GAPDH from the same blots and compared to “Healthy-1, no treatment”. n=4 independent experiments. (B) Fibroblasts from PD-2 were treated and immunostained as indicated. The intensity was quantified for each cell across 264-320 cells from 3 independent experiments, compared to “no treatment”. (C) Fibroblasts were treated, immunoprecipitated (IPed) with anti-Miro1, and blotted as indicated. Similar results were observed twice. (D) Similar as in (C), fibroblasts were treated as indicated, and IPed with anti-Miro1. The GTPase activity of the IPed Miro1 protein was measured as described in Method. […] The MitoSox intensity was quantified for each cell across 106-161 cells from 3 coverslips. […] The TMRM intensity was measured for each cell across 48-60 cells from 3 independent experiments, and expressed as a fraction of the mean of “Healthy-1, no treatment”. […] The movement (the intensity of non-yellow) was quantified for each cell as described in (Tsai et al., 2014) across 22-31 cells from 3 transfections. […] (1) Left: The percentage of TH-positive iPSC-derived neurons out of total cells (Dapi-positive) is calculated after immunocytochemistry under 20× as described in FIG. 3. […]

[1] = tested on: healthy-1 or PD-2 fibroblasts; assay: Baseline mitochondrial reactive oxygen species, MitoSox staining; assay type: cell-based, human; conditions: 10 μM for 30 hrs
Method: as §1

With `O=C(Nc1ccc(Nc2cc(-n3ccnc3)ncn2)cc1)Nc1cccc(F)c1` [Miro1 Reducer] as the molecule, how does the “non-progressive phenotypes (lowered ATP levels, thoracic indentation, abnormal wing posture, defective flying ability)” value (PINK1 null flies) read?
Its value is “did not improve”.

What about the “baseline mitochondrial reactive oxygen species levels (MitoSox)” value [1] of the same molecule?
The value was “did not affect”.
